Assays:
West Nile virus (WNV) = test: Suppression of West Nile virus in Vero cell culture, colorimetric assay of cellular lactic dehydrogenase (O.D. 490); details: for Mean O.D. 490 value: Vero cells
Procedure: The vertical axis represents a colorimetric assay of cellular lactic dehydrogenase which is directly proportional to cell viability and proliferation.
(§1) In vitro: Studies have been conducted utilized a bovine kidney cell monolayer infected with a strain of WNV isolated from mosquitoes and birds in Connecticut. Cytotoxicity was assayed by measuring the decrease in release of lactate dehydrogenase from infected cells, as compared with uninfected controls.

[1] = cited from earlier work
mice [2] = details: cited from earlier work
[3] = after 600 mg given every 6 hours; cited from earlier work
mice [4] = test: Mutagenicity of ribavirin in mice; details: from mice
[5] = system: green monkey kidney cells; test: Cytotoxic effect of ribavirin in cell culture; format: cell-based
Procedure: as §1

NC(=O)c1ncn([C@@H]2O[C@H](CO)[C@@H](O)[C@H]2O)n1 [Ribavirin, 1-β-D-ribofuranosyl-1H-1,2,4-triazole-3-carboxamide, reference compound]
Mean O.D. 490 value (West Nile virus (WNV); Ribavirin 0.2 uM applied 2 hours prior to infection of cells with WNV): 0.72c | Mean O.D. 490 value (West Nile virus (WNV); Ribavirin 0.3 uM applied 2 hours prior to infection of cells with WNV): 1.11a | Mean O.D. 490 value (West Nile virus (WNV); Ribavirin 0.4 uM applied 2 hours prior to infection of cells with WNV): 1.24b | Mean O.D. 490 value (West Nile virus (WNV); Ribavirin 0.5 uM applied 2 hours prior to infection of cells with WNV): 1.24b | Mean O.D. 490 value (West Nile virus (WNV); Ribavirin 0.6 uM applied 2 hours prior to infection of cells with WNV): 1.06a | concentration protective or prophylactic against infection (West Nile virus (WNV); WNV infection of bovine kidney cells in vitro): 400 µM | concentration that suppressed viral replication (West Nile virus (WNV); applied after infection): 500 µM | activity in vitro against WNV infection (West Nile virus (WNV); bovine kidney cells): active | protective concentration expressed as mass concentration (West Nile virus (WNV); equivalent of 400 uM): approximately 100 ug/ml | dose at which inhibition of erythrocyte release from bone marrow occurs ([1]; high doses): 30 mg/kg | reduction from baseline hematocrit ([1]; human, in vivo): ≤ 20% | reduction in baseline hemoglobin ([1]; human, in vivo): 10-12% | toxicity (in words) ([1]; human, in vivo): hemolysis | Bioavailability ([1]; patients with renal dysfunction): increased | teratogenicity ([1]; should not be given during, or within 6 months of pregnancy): teratogenic | dose known to be mutagenic (mice [2]): 20 to 200 mg/kg | concentration in human serum [3]: 1000 ng/mL | estimated human equivalent of mutagenic dose (mice [4]): 1.67 to 16.7 mg/kg | concentration at which a cytotoxic effect occurred [5]: 600 to 1000 µM
